Where “and” joins values, the source holds several entries; their conditions need not be identical. Equal entries are not always repeated. Blank lines part the entries; values can stand above or below the compound they belong to.
Test: solvent given as SMILES

Compound: CCCCOc1c(C=C2N(C)c3ccccc3C2(C)C)c(=O)c1=S
- absorption maximum (in CCO): 500 nm

Compound: N#CC(C#N)=Cc1ccc2nc(C#Cc3ccc(N(c4ccc(C#Cc5nc6ccc(C=C(C#N)C#N)cc6s5)cc4)c4ccc(C#Cc5nc6ccc(C=C(C#N)C#N)cc6s5)cc4)cc3)sc2c1
- absorption maximum (in Cc1ccccc1): 440 nm

Compound: Cc1cc(=O)oc2cc(/[NH+]=C/C=C3/C=C(C(=O)O)NC(C(=O)O)C3)ccc12 (configuration not stated)
- absorption maximum (in O): 520 nm

Compound: O=C1c2ccccc2C2=Cc3cccc[n+]3[B-](F)(F)N12
- absorption maximum (in CCO): 391 nm
- absorption maximum (in Cc1ccccc1): 399 nm
- absorption maximum (in ClCCl): 396 nm and 385 nm

Compound: Nc1ccccc1
- absorption maximum (in C1CCCCC1): 283.13 nm

Compound: O=c1cc(-c2ccccc2)oc(-c2nc3ccccn3c2NC2CCCCC2)c1
- absorption maximum (in ClCCl): 353 nm

Compound: c1ccc(N(c2ccccc2)c2ccc(-c3ccc4c(c3)C3(c5cc(-c6ccc(N(c7ccccc7)c7ccccc7)cc6)ccc5-4)c4ccccc4N(c4ccccc4)c4ccccc43)cc2)cc1
- absorption maximum (in ClCCl): 372 nm

Compound: FC(F)(F)c1ccc(-c2nc(-c3ccc(C(F)(F)F)cc3)n3ccccc23)cc1
- absorption maximum (in ClC(Cl)Cl): 325 nm

Compound: O=Cc1nc2ccc(C#Cc3ccc(N(c4ccccc4)c4ccccc4)cc3)cc2s1
- absorption maximum (in Cc1ccccc1): 412 nm

Compound: COC(=O)/C(C#N)=c1\s/c(=c2/s/c(=C(/C#N)C(=O)OC)c3cc(-c4ccccc4)sc23)c2sc(-c3ccccc3)cc12
- absorption maximum (in Cc1ccccc1): 605 nm

Compound: Cc1cccc(C2=Cc3c4ccccc4cc[n+]3[B-](F)(F)O2)c1
- absorption maximum (in ClC(Cl)Cl): 401.5 nm

Compound: CCN(CC)c1ccc(/N=N/c2nc3ccc(OC)cc3s2)cc1
- absorption maximum (in CC#N): 515 nm
- absorption maximum (in ClCCl): 517 nm

Compound: O=c1c2cccc3cccc(c32)c2nc3c(F)c(F)c(F)c(F)c3n12
- absorption maximum (in ClCCl): 382 nm

Compound: CCC1=C(C)C2=Cc3c4ccccc4c4n3[B-](c3ccc5cc6ccccc6cc5c3)(Oc3ccccc3-4)[N+]2=C1C (configuration not stated)
- absorption maximum (in CC#N): 621 nm
- absorption maximum (in CCCCCC): 626 nm
- absorption maximum (in Cc1ccccc1): 630 nm
- absorption maximum (in ClCCl): 627 nm

Compound: CCC1=C(C)C2=C(c3cc(C(=O)Cl)cc(C4=C5C(C)=C(CC)C(C)=[N+]5[B-](F)(F)n5c(C)c(CC)c(C)c54)c3)c3c(C)c(CC)c(C)n3[B-](F)(F)[N+]2=C1C
- absorption maximum (in C1CCOC1): 530 nm
- absorption maximum (in CC#N): 527 nm
- absorption maximum (in CN(C)C=O): 535 nm
- absorption maximum (in Cc1ccccc1): 534 nm
- absorption maximum (in ClC(Cl)Cl): 534 nm

Compound: CCOC(=O)CN1C(=O)C2=C(c3ccc(N4CCCCC4)cc3)N(CC(=O)OCC)C(=O)C2=C1c1ccc(C#N)cc1
- absorption maximum (in CC#N): 524 nm
- absorption maximum (in CS(C)=O): 541 nm
- absorption maximum (in Cc1ccccc1): 527 nm

Compound: O=[N+]([O-])c1cc(/N=N/c2cc3c4c(c2)CCCN4CCC3)cc([N+](=O)[O-])c1
- absorption maximum (in CCOC(C)=O): 513 nm

Compound: FC(F)(F)C(F)(F)C(F)(F)C1=NC2=C(Br)C=C3c4cc(Br)c5nc(C(F)(F)C(F)(F)C(F)(F)F)nc6c(Br)cc(c4c56)=C4C=C(Br)C(=N1)C2C34 (configuration not stated)
- absorption maximum (in C1CCOC1): 475 nm

Compound: Cc1c2c(nc3ccccc13)-c1cc3c(cc1CC2)-c1nc2ccccc2c(C)c1CC3
- absorption maximum (in ClC(Cl)Cl): 372 nm

Compound: CCn1c2ccccc2oc2c(C#N)c3oc4ccccc4oc3c(C#N)c21
- absorption maximum (in ClC(Cl)Cl): 470 nm

Compound: CC(=O)N(Cc1ccccn1)c1c2ccccc2c2c3c(cccc13)C(=O)N(Cc1ccccn1)C2=O
- absorption maximum (in C1CCOC1): 436 nm
- absorption maximum (in CCCCCC): 432 nm
- absorption maximum (in CCO): 437 nm
- absorption maximum (in Cc1ccccc1): 437 nm
- absorption maximum (in ClCCl): 439 nm

Compound: C#CCNC1=C2C=C(c3cc4n(c3)[B-](F)(F)[N+]3=CC=CC3=C4c3c(C)cc(C)cc3C)C(C)=[N+]2[B-](F)(F)n2c(C)ccc21
- absorption maximum (in C1CCCCC1): 568 nm
- absorption maximum (in CCOC(C)=O): 568 nm

Compound: c1ccc2c(c1)c1ccccc1n2-c1cc(-c2nc3ccccn3n2)cc(-n2c3ccccc3c3ccccc32)c1
- absorption maximum (in Cc1ccccc1): 338 nm

Compound: CC(C)(C)c1ccc2c(c1)c1cc(C(C)(C)C)ccc1n2-c1ccc(C#Cc2ccc(C=C(C#N)C#N)cc2)cc1
- absorption maximum (in CC#N): 346 nm
- absorption maximum (in CCCCC): 345 nm
- absorption maximum (in Cc1ccccc1): 348 nm
- absorption maximum (in ClCCl): 410 nm

Compound: CC[n+]1c(C=C2C(=O)C(C=C3N(C)c4ccccc4C3(C)C)=C2[O-])[se]c2ccccc21
- absorption maximum (in CO): 643 nm
- absorption maximum (in ClC(Cl)Cl): 657 nm
- absorption maximum (in ClCCl): 658 nm

Compound: CC[N+]1(CC)CN2C(=N1)C(C(=O)O)=Cc1cc(OC)c(OC)cc12
- absorption maximum (in O): 392 nm

Compound: CN(C)c1[se]c(-c2ccc(Cl)cc2)nc1-c1ccccc1
- absorption maximum (in ClC(Cl)Cl): 360 nm

Compound: O=C(c1ccc(N2c3ccccc3Oc3ccccc32)cc1)c1cccc(C(=O)c2ccc(N3c4ccccc4Oc4ccccc43)cc2)c1
- absorption maximum (in Cc1ccccc1): 416 nm

Compound: Cc1ccc(-c2nc3c([nH]2)C2=CC(=O)S[C@]2(C)[C@@]2(C)SC(=O)C=C32)cc1
- absorption maximum (in CC#N): 455 nm

Compound: Cc1ccc(C2=C3C=C(I)C=[N+]3[B-](F)(F)n3c2cc(I)c3I)cc1
- absorption maximum (in C1CCCCC1): 563.5 nm
- absorption maximum (in CC#N): 553 nm
- absorption maximum (in CCO): 559 nm
- absorption maximum (in CCOC(C)=O): 556.5 nm
- absorption maximum (in CO): 557.5 nm
- absorption maximum (in OCC(F)(F)F): 553 nm

Second part, the compound after the results:

- absorption maximum (in ClCCl): 299.5 nm
Compound: CCCCCCCCCCn1c(-c2cc(-c3nc4ccccc4n3CCCCCCCCCC)cc(-c3nc4ccccc4n3CCCCCCCCCC)c2)nc2ccccc21

- absorption maximum (in ClCCl): 340 nm
Compound: CCCCCCn1c2c(c3cc(-c4ccc5ccc6cccc7ccc4c5c67)ccc31)-c1c(c3cc(-c4ccc5ccc6cccc7ccc4c5c67)ccc3n1CCCCCC)-c1c(c3cc(-c4ccc5ccc6cccc7ccc4c5c67)ccc3n1CCCCCC)-c1c-2c2cc(-c3ccc4ccc5cccc6ccc3c4c56)ccc2n1CCCCCC

- absorption maximum (in ClCCl): 398 nm
Compound: CCCCCCCCOc1cc(/C=C/c2ccncc2)c(OCCCCCCCC)cc1/C=C/c1ccncc1

- absorption maximum (in ClCCl): 578 nm
Compound: CCCCCCCCCCCCCCCCCCOC(=O)/C=C/C1=CC2=C(c3c(C)cc(C)cc3C)c3cc(/C=C/C(=O)OCCCCCCCCCCCCCCCCCC)cn3[B-](F)(F)[N+]2=C1

- absorption maximum (in ClC(Cl)Cl): 332 nm
Compound: CCCCn1c2ccccc2c2ccc3c4cc(-c5ccc6ccccc6c5)ccc4n(CCCC)c3c21

- absorption maximum (in C1CCOC1): 519 nm
- absorption maximum (in CN1CCCC1=O): 525 nm
- absorption maximum (in CN(C)C=O): 522 nm and 524 nm
Compound: O=C1c2ccc3c4ccc5c6c(ccc(c7ccc(c2c37)C(=O)N1c1ccc(O)cc1)c64)C(=O)N(c1ccc(O)cc1)C5=O

- absorption maximum (in CO): 640 nm
Compound: C#CCOc1ccc(/C=C/C2=[N+]3C(=C(c4ccc(N(CC)CC)cc4)c4c(C)cc(/C=C/c5ccc(OCC(=O)OC)cc5)n4[B-]3(F)F)C(C)=C2)cc1

- absorption maximum (in ClCCl): 445 nm
Compound: COCCOCCOCCOCC(COCCOCCOCCOC)Oc1cc(/C=C/c2ccc(/C=C(\C#N)c3ccncc3)cc2)c(OC(COCCOCCOCCOC)COCCOCCOCCOC)cc1/C=C/c1ccc(/C=C(\C#N)c2ccncc2)cc1

- absorption maximum (in CC#N): 383 nm
Compound: Cc1ccc(-c2ccc(/C=C/c3ccc(N(C)C)cc3)cn2)nc1

- absorption maximum (in CN(C)C=O): 523 nm
Compound: CCCCCCCCCCCCCCCCCCN1C(=O)c2ccc3c4ccc5c6c(ccc(c7ccc(c2c37)C1=O)c64)C(=O)NC5=O

- absorption maximum (in ClCCl): 340 nm
Compound: CCCCC(CC)COc1cc(OCC(CC)CCCC)c2c#cc3ccc4c(c3)c3cc(c#cc5cc(c#cc6ccc7c(c6)c6cc(c#cc1c2)ccc6n7CC(CC)CCCC)c(C(CCCC)OCCC)cc5C(CCCC)OCCC)ccc3n4CC(CC)CCCC (configuration not stated)

- absorption maximum (in O): 430 nm
Compound: COc1cc(-c2cc(N3CCCCC3)c(C#N)c3c2-c2cccc4cccc-3c24)cc(OC)c1OC

- absorption maximum (in ClC(Cl)Cl): 411 nm
Compound: Cc1ccc(C2CC(=O)Oc3c2c2nc4ccc(C)cc4nc2c2ccccc32)cc1 (configuration not stated)

- absorption maximum (in CS(C)=O): 736 nm
Compound: COc1ccc(-c2c3nc(cc4ccc([nH]4)c(-c4ccc(OC)c(OCCCC(=O)O)c4)c4nc(cc5ccc2[nH]5)CC4)CC3)cc1OCCCC(=O)O

- absorption maximum (in ClC(Cl)Cl): 732 nm
Compound: CCCCCCCCCCOc1cc(OCCCCCCCCCC)cc(C2=C3C(/C=C/c4ccc(OC)cc4)=C(C#Cc4ccc(C(C)(C)C)cc4)C(/C=C/c4ccc(OC)cc4)=[N+]3[B-](F)(F)n3c(/C=C/c4ccc(OC)cc4)c(C#Cc4ccc(C(C)(C)C)cc4)c(/C=C/c4ccc(OC)cc4)c32)c1

- absorption maximum (in CO): 307 nm
Compound: COc1ccccc1-c1nc(-c2ccccc2)c(-c2ccccc2)[nH]1

- absorption maximum (in ClCCl): 354 nm
Compound: COc1ccc(C2=CC(c3ccccc3)=C(c3ccccc3)C2)c2ccccc12

- absorption maximum (in ClCCl): 370 nm
Compound: COc1ccc(-c2cnc(/C=C/c3ccc(C#N)cc3)o2)cc1OC

- absorption maximum (in ClCCl): 607 nm
Compound: Cc1cc(C)c(-c2c3ccccc3c3ccc4cc5c(-c6c(C)cc(C)cc6C)c6ccccc6c6ccc7cc2c3c4c7c56)c(C)c1

- absorption maximum (in ClC(Cl)Cl): 475 nm
Compound: CCCCCCCCc1ccc(-c2c3cc(-c4cc(CCCCCCCC)c(-c5ccc(-c6sc(/C=C7\SC(N8CCCCC8)=NC7=O)cc6CCCCCCCC)s5)s4)sc3c(-c3ccc(CCCCCCCC)s3)c3cc(-c4cc(CCCCCCCC)c(-c5ccc(-c6sc(/C=C7\SC(N8CCCCC8)=NC7=O)cc6CCCCCCCC)s5)s4)sc23)s1

- absorption maximum (in CCO): 395 nm
- absorption maximum (in ClCCl): 397 nm
Compound: COCc1ncc(-c2c3ccccc3c(-c3cnc(COC)nc3)c3ccccc23)cn1

- absorption maximum (in ClCCl): 368 nm
Compound: CCCCC(CC)COc1ccc2nc(-c3ccc(-c4ccccc4)s3)sc2c1 (configuration not stated)

Source: the Deep4Chem optical property database
